Measurements reported in US5036050A, “Compositions containing thymopentin for topical treatment of skin disorders” (Immunobiology Research Institute, Inc., priority 1989, dated 1991).
Where no end group is shown, it is not given here.

Tested on: neuromuscular transmission
Assay: Neuromuscular assay (electromyography after topical application)
Assay type: in vivo, guinea pigs
Details: 18 hours later
Method: To determine the effect of different formulations and dosages of compositions according to the invention, varying amounts of topical TP5 compositions prepared as described in Example 1B, were applied to the skin of guinea pigs.
A 11/2"×11/2" square section was shaved on each animal's back 24 hours before the application of the thymopentin composition. Four concentrations of thymopentin cream were used (10%, 5%, 2.5% and 1.25%) using Unibase® as a diluent. A total of 100 mg of cream containing either 10 mg, 5 mg, 2.5 mg or 1.25 mg thymopentin was rubbed with a spatula on the shaved skin of each animal. Control animals were treated similarly with the Unibase® carrier only.
Eighteen hours later the neuromuscular transmission of each group of five animals for each concentration was assessed by electromyography as described in Lancet, 12:256-259 (1975).

RKDVY [thymopentin]
neuromuscular change compared to control animals (5% thymopentin cream in Unibase, 100 mg cream (5 mg thymopentin) on shaved skin): Significant neuromuscular change | neuromuscular change compared to control animals (10% thymopentin cream in Unibase, 100 mg cream (10 mg thymopentin) on shaved skin): Significant neuromuscular change
